Measurements from PMC5099554 (British Journal of Clinical Pharmacology, 2016).
Where two headings read alike, the source gives them in different places.

Columns and labels:
CYP3A4 = CYP3A4 (Homo sapiens, UniProt P08684); settings: in vitro; cited from earlier work
[1] = for AUC(0-inf) / AUC(0-t) / half-life / Tmax: male, human, in vivo; for AUC(0-inf): AUCinf; for AUC(0-inf) / AUC(0-t): geometric mean; for AUC(0-t): AUClast; for half-life: t 1/2, geometric mean
CYP1A2 = settings: cited from earlier work
[2] = healthy male subjects, plasma, after 2 weeks of fermented red ginseng
[3] = healthy male subjects, plasma, before fermented red ginseng
[4] = After FRG, healthy male subjects, plasma, after 2 weeks of fermented red ginseng
[5] = Before FRG, healthy male subjects, plasma, before fermented red ginseng
[6] = t max (median), Before FRG, healthy male subjects, plasma, before fermented red ginseng
[7] = t max (median), After FRG, healthy male subjects, plasma, after 2 weeks of fermented red ginseng

Sequence of CYP3A4 (P08684 whole entry): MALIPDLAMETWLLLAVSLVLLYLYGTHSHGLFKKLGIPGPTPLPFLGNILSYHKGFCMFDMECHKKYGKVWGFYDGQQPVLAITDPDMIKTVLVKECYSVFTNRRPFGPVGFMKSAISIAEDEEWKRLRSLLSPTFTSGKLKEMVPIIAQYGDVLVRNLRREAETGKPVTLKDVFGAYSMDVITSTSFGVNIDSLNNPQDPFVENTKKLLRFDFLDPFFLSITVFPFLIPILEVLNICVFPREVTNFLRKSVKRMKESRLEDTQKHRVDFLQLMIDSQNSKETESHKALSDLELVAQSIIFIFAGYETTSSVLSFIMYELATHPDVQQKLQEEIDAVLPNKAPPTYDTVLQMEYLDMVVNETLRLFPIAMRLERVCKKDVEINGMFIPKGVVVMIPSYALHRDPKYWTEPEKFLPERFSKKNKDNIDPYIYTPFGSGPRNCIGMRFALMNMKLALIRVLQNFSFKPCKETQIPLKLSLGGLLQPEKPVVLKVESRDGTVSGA

Compound | AUCinf, geometric mean ratio, After FRG: Before FRG (90% CI) ([1]; healthy male subjects, plasma) | AUClast, geometric mean ratio, After FRG: Before FRG (90% CI) ([1]; healthy male subjects, plasma) | C max, geometric mean ratio, After FRG: Before FRG (90% CI) ([1]; healthy male subjects, plasma) | t 1/2, geometric mean, After FRG [1, 2] | t 1/2, geometric mean, Before FRG [1, 3] | t max (median), Before FRG [1, 3] | AUC(0-inf) [1, 4] | AUC(0-inf) [1, 5] | AUC(0-t) [1, 4] | AUC(0-t) [1, 5] | half-life [1, 4] | half-life [1, 5] | Tmax [1, 6] | also measured
CC(C)=CCCC(C)(O)[C@H]1CC[C@]2(C)[C@@H]1[C@H](O)C[C@@H]1[C@@]3(C)CC[C@H](O)C(C)(C)[C@@H]3CC[C@]12C (stereo in doubt) [PPD, protopanaxadiol] | – | – | – | – | – | – | – | – | – | – | – | – | – | inhibition of CYP3A4 activity (CYP3A4): potent inhibition
OCc1ncc2n1-c1ccc(Cl)cc1C(c1ccccc1F)=NC2 [1‐hydroxymidazolam] | 0.924 (0.791–1.080) | 0.944 (0.805–1.107) | 0.750 (0.583–0.966) | 0.678 h | 0.728 h | 0.500 h | – | – | – | – | – | – | – | AUCinf, geometric mean, After FRG [1, 2]: 74.221 ng·h/mL; AUClast, geometric mean, After FRG [1, 2]: 69.474 ng·h/mL; t max (median), After FRG [1, 2]: 0.517 h; AUCinf, geometric mean, Before FRG [1, 3]: 80.311 ng·h/mL; AUClast, geometric mean, Before FRG [1, 3]: 73.587 ng·h/mL
COc1ccc2nc([S+]([O-])Cc3ncc(CO)c(OC)c3C)[nH]c2c1 (centres unmarked) [5‐hydroxyomeprazole] | 1.050 (0.961–1.147) | 0.979 (0.918–1.045) | 0.945 (0.859–1.039) | 2.716 h | 1.971 h | 3.000 h | – | – | – | – | – | – | – | AUCinf, geometric mean, After FRG [1, 2]: 283.859 ng·h/mL; AUClast, geometric mean, After FRG [1, 2]: 239.033 ng·h/mL; t max (median), After FRG [1, 2]: 3.000 h; AUCinf, geometric mean, Before FRG [1, 3]: 270.368 ng·h/mL; AUClast, geometric mean, Before FRG [1, 3]: 244.051 ng·h/mL
Cn1c(=O)c2c(ncn2C)n(C)c1=O [Caffeine, caffeine] | 1.165 (1.002–1.356) | 1.128 (0.997–1.277) | 1.002 (0.857–1.171) | – | – | – | 57500 ng·h/mL | 49300 ng·h/mL | 51300 ng·h/mL | 45500 ng·h/mL | 6.94 h | 5.5 h | 0.5 h | fraction metabolized to paraxanthine by CYP1A2 (CYP1A2): over 95%
COc1ccc2c(c1)[C@]13CCCC[C@@H]1[C@H](C2)N(C)CC3 [Dextromethorphan, dextromethorphan] | 0.869 (0.638–1.184) | 0.907 (0.681–1.209) | 0.849 (0.688–1.047) | 7.006 h | 7.540 h | – | 43.5 ng·h/mL | 50.1 ng·h/mL | 17.1 ng·h/mL | 18.9 ng·h/mL | – | – | – | Tmax [1]: 2 h
CN1CC[C@@]23CCCC[C@@H]2[C@@H]1Cc1ccc(O)cc13 [Dextrorphan, dextrorphan] | 1.042 (0.932–1.164) | 1.044 (0.926–1.176) | 1.024 (0.876–1.198) | – | – | 2.000 h | 66.1 ng·h/mL | 63.5 ng·h/mL | 60.3 ng·h/mL | 57.7 ng·h/mL | 3.43 h | 3.92 h | – | –
CCCCc1nc(Cl)c(C(=O)O)n1Cc1ccc(-c2ccccc2-c2nn[nH]n2)cc1 [EXP3174] | 0.813 (0.687–0.963) | 0.811 (0.684–0.963) | 0.832 (0.694–0.997) | – | – | – | 2610 ng·h/mL | 3210 ng·h/mL | 2500 ng·h/mL | 3080 ng·h/mL | – | – | 3 h | Tmax [1, 7]: 4 h
CCCCc1nc(Cl)c(CO)n1Cc1ccc(-c2ccccc2-c2nn[nH]n2)cc1 [Losartan, losartan] | 1.047 (0.887–1.237) | 1.048 (0.887–1.239) | 0.974 (0.797–1.190) | – | – | – | 549 ng·h/mL | 524 ng·h/mL | 542 ng·h/mL | 517 ng·h/mL | 1.94 h | 1.86 h | 1.5 h | Tmax [1, 7]: 1.5 h
Cc1ncc2n1-c1ccc(Cl)cc1C(c1ccccc1F)=NC2 [Midazolam, midazolam] | 1.138 (1.007–1.285) | 1.157 (1.022–1.309) | 0.873 (0.732–1.041) | – | – | – | 126 ng·h/mL | 110 ng·h/mL | 119 ng·h/mL | 103 ng·h/mL | 2.96 h | 3.3 h | – | –
